{
  "source": "patent US5077037A",
  "about": "“Novel compositions for magnetic resonance imaging” (Mallinckrodt Medical, Inc., priority 1990, dated 1991)",
  "key": {"[1]": {"system": "mouse", "assay": "mouse i.v. LD50 (acute toxicity)", "assay_type": "in vivo", "details": "0.5M solution, confidence limit of 14.3-18.4 mmol/kg"}, "[2]": {"assay": "relaxivity rates (Bruker NMR MiniSpec, 20 MHz, 40° C.)", "assay_type": "physicochemical"}, "[3]": {"details": "sterile water for injection (SWFI)"}},
  "data": [
    {"compound": "O=C([O-])CN(CCN(CC(=O)[O-])CC(=O)NCC1CCCO1)CCN(CC(=O)[O-])CC(=O)NCC1CCCO1.[Gd+3]", "note": "(centres unmarked) [Example 2]", "values": [
      {"measurement": "LD50 value", "setting": "[1]", "value": 16.2, "unit": "mmol/kg"},
      {"measurement": "relaxivity rate T1", "setting": "[2]; 4% human serum albumin (HSA)", "value": 4.8, "unit": "mmol⁻¹ s⁻¹"},
      {"measurement": "relaxivity rate T2", "setting": "[2]; 4% human serum albumin (HSA)", "value": 4.8, "unit": "mmol⁻¹ s⁻¹"},
      {"measurement": "relaxivity rate T1", "setting": "[2]; [3]", "value": 4.4, "unit": "mmol⁻¹ s⁻¹"},
      {"measurement": "relaxivity rate T2", "setting": "[2]; [3]", "value": 5.6, "unit": "mmol⁻¹ s⁻¹"}
    ]}
  ]
}
